Reference: patent US20220000840A1, “PHARMACEUTICAL COMPOSITION AND PREPARATION METHOD THEREFOR” (priority 2015, published 2022)

Experiments:
[1] = Stability of NL-101 intermediate/diluted solution (before lyophilization) at room temperature (25±2°C), HPLC; type: physicochemical; details: for Purity: intermediate solution per Example 2 of CN103826630A, room temperature (25 ± 2° C.)
Experimental: (§1) Northlake Biosciences LLC submitted an application WO2013010286A2 on Sep. 14, 2012, and its Chinese family patent is CN103826630A. Chinese family patent application CN103826630A uses acetic acid to dissolve NL-101 and use cyclodextrin inclusion technology to prepare lyophilized powder for injection to improve the safety of NL-101. However, the prepared NL-101 lyophilized powder for injection, such as Example 2, although claimed to be chemically stable at −20° C., 4° C. and room temperature for at least 2 weeks, in fact, the inventors of the present application have verified that the results are still far from satisfying the clinical application requirements of drugs. Although it can be stable for 2-3 weeks at −20° C. and 4° C., it is only stable for several days at room temperature. […] Especially when placed only 5 days in the condition of high temperature accelerated test at 40° C., more than 15% of NL-101 was degraded. The specific stability test results are shown in Table 1, Table 2, and Table 3 below.
The diluted solutions prepared according to the formulations 1-15, 1-1, 2-1, 3-1 and according to Example 2 of CN103826630A were left to stand for 2 hours at room temperature (25±2° C.) and the stability of each diluted solution was tested by high performance liquid chromatography.
The diluted solutions prepared according to the formulations 16-29 and according to Example 2 of CN103826630A were left to stand for 2 hours at room temperature (25±2° C.) and the stability of each diluted solution was tested by high performance liquid chromatography.
Three batches of diluted solutions were taken and placed at room temperature (25±2° C.) for different periods of time. The stability of each diluted solution was tested by high performance liquid chromatography.

[2] = Storage stability of NL-101 lyophilized preparation (room temperature, 4°C, -20°C); type: physicochemical; details: for time stable: verified by the inventors; for Purity: lyophilized preparation per Example 2 of CN103826630A, room temperature (25 ± 2° C.)
Experimental: as §1
According to the accelerated test results at 40° C., it is presumed that under the condition of storage, transportation and sales at room temperature (25±2° C.), it can remain stable for at least 2 years and fully meet the needs of clinical use.

[3] = Accelerated test of NL-101 lyophilized preparation at 40°C, HPLC / HPLC-MS; type: physicochemical; details: for Purity: lyophilized preparation per Example 2 of CN103826630A, accelerated test at 40° C.
Experimental: as §1
The NL-101 lyophilized preparation for injection prepared according to the formulation 4 was taken and subjected to an accelerated test at 40° C., and the stability was tested by high performance liquid chromatography.
The NL-101 lyophilized preparation for injection prepared according to the formulations 16 and 22 were taken and subjected to an accelerated test at 40° C., and the accelerated test samples were test by high performance liquid chromatography in connection with mass spectrometry.
The above three batches of lyophilized powder for injection were taken and subjected to accelerated experiments at 40° C. The contents and total impurities were measured at 0, 1, 3, and 6 months, respectively.

[4] = Stability of NL-101 reconstituted solution (5 mg/mL) at room temperature (25±2°C); type: physicochemical; details: CN103826630A Example 2 lyophilized preparation
Text: In the process of investigating the NL-101 lyophilized preparation, the inventors unexpectedly discovered that reconstitution of the NL-101 lyophilized preparation with different solvents has a great influence on the stability of NL-101. For example, the lyophilized preparation prepared in Example 2 of CN103826630A was reconstituted with water for injection and physiological saline, respectively, and the purity of NL-101 in the reconstituted solution was examined at different time points.
Since the NL-101 lyophilized powder for injection prepared in Example 2 of CN103826630A contains sodium ions, it is speculated that the stability of NL-101 is increased by chlorine ions in sodium chloride. In order to confirm this, we conducted a stability investigation by reconstituting the lyophilized preparation prepared in Example 2 of CN103826630A in a potassium chloride solution having the same molar concentration as physiological saline.

[5] = Solubility and chemical stability of NL-101 drug substance; type: physicochemical
[6] = lyophilized powder for injection of CN103826630A Example 2, at −20° C., 4° C. and room temperature, as claimed in CN103826630A; cited from earlier work
[7] = intravenous injection of prior-art injection (NL-101 dissolved with acetic acid, diluted with water for injection), animal; cited from earlier work

With `Cn1c(CCCCCCC(=O)NO)nc2cc(N(CCCl)CCCl)ccc21` [NL-101, 7-[5-[bis(chloroethyl)-amino]-1-methylbenzimidazol-2-yl]-N-hydroxyl-heptamide] the NL-101 degraded ([1]; intermediate solution before lyophilization per Example 2 of CN103826630A, in the dark at room temperature for 4 hours) was “more than 15%”, the Purity ([1]; 0 h) was 94.05% and the Purity ([1]; 2 h) was 88.06%. The Purity ([1]; 4 h) was 78.22%, the time stable ([2]; lyophilized powder for injection of CN103826630A Example 2, at room temperature) was “several days” and the time stable ([2]; lyophilized powder for injection of CN103826630A Example 2, at −20° C. and 4° C.) was 2-3 weeks. The “degradation of NL-101” value ([2]; lyophilized powder for injection of CN103826630A Example 2, room temperature for 1 month) was “degraded severely”, the Purity ([2]; day 0) was 90.23% and the Purity ([2]; day 5) was 85.16%. The Purity ([2]; day 15) was 77.31%, the Purity ([2]; day 30) was 70.55% and the NL-101 degraded ([3]; lyophilized powder for injection of CN103826630A Example 2, 5 days in accelerated test at 40° C.) was “more than 15%”. For the same compound, the Purity ([3]; day 0) was 90.23%, the Purity ([3]; day 5) was 72.31% and the “purity of NL-101 reconstituted with potassium chloride injection” value (from here on “purity … with potassium chloride injection”) ([4]; 0 h) was 91.28%. For the same compound, the “purity of NL-101 reconstituted with sodium chloride injection” value (“purity … with sodium chloride injection” below) ([4]; 0 h) was 91.88%, the “purity of NL-101 reconstituted with water for injection” value (“purity … for injection” below) ([4]; 0 h) was 90.23% and the “purity … with potassium chloride injection” value ([4]; 2 h) was 86.25%. The “purity … with sodium chloride injection” value ([4]; 2 h) was 87.05%, the “purity … for injection” value ([4]; 2 h) was 80.06% and the “purity … with potassium chloride injection” value ([4]; 4 h) was 81.93%. For the same compound, the “purity … with sodium chloride injection” value ([4]; 4 h) was 80.23%, the “purity … for injection” value ([4]; 4 h) was 71.08% and the “purity … with potassium chloride injection” value ([4]; 6 h) was 83.56%. For the same compound, the “purity … with sodium chloride injection” value ([4]; 6 h) was 78.33%, the “purity … for injection” value ([4]; 6 h) was 59.36% and the solubility ([5]; in acetic acid) was “easily soluble”. The stability ([5]; in aqueous solution) was “unstable”, the stability ([5]; in case of strong acid, strong alkali, strong oxidant and light) was “easily degraded” and the solubility ([5]; in ethanol) was “very slightly soluble”. The solubility ([5]; in methanol) was “slightly soluble”, the stability ([5]; in methanol and acetic acid solution) was “relatively stable” and the solubility ([5]; in water) was “insoluble”. The “time claimed to be chemically stable” value [6] was “at least 2 weeks”, the mortality rate [7] was “high” and the toxicity [7] was “highly toxic”. For the same compound, the vascular irritation [7] was “large”.
